Data as given in patent US20100298375A1, “MEDICAMENT COMPRISING A CARBOSTYRIL DERIVATIVE AND DONEPEZIL FOR TREATING ALZHEIMER'S DISEASE” (priority 2007, published 2010).
Counter-ions that a name gives are not always drawn.

Test system: women suffering from Alzheimer's disease
Assay: mini-mental state examination (MMSE) in patients with Alzheimer's disease
Type: in vivo
Method: To two women suffering from Alzheimer's disease (one was […] and the other was […]), donepezil hydrochloride (Aricept®) had been administered in a dose of 5 mg/day for 12 months and 9 months, respectively. […] At the beginning time of the experiment (0 month), the administration of cilostazol in a dose of 100 mg/day started as the combination with donepezil hydrochloride.

## COc1cc2c(cc1OC)C(=O)C(CC1CCN(Cc3ccccc3)CC1)C2 (stereo not drawn) [donepezil hydrochloride]
Patient 1, at start of cilostazol, donepezil hydrochloride 5 mg/day alone until then
  MMSE Score: 13
Patient 1, −3 Ms, donepezil hydrochloride 5 mg/day alone
  MMSE Score: 16
Patient 1, −6 Ms, donepezil hydrochloride 5 mg/day alone
  MMSE Score: 17
Patient 1, −9 Ms, donepezil hydrochloride 5 mg/day alone
  MMSE Score: 17
Patient 2, at start of cilostazol, donepezil hydrochloride 5 mg/day alone until then
  MMSE Score: 6
Patient 2, −3 Ms, donepezil hydrochloride 5 mg/day alone
  MMSE Score: 10
Patient 2, −6 Ms, donepezil hydrochloride 5 mg/day alone
  MMSE Score: 12
Patient 2, −9 Ms, donepezil hydrochloride 5 mg/day alone
  MMSE Score: 13
Patient 2, −12 Ms, donepezil hydrochloride 5 mg/day alone
  MMSE Score: 16
